# How the values were obtained:
# [1] = tested on: Crj: CD-1 (ICR) male mice; experiment: Acute toxicity, oral, male mice, 7-day observation; format: in vivo, mouse; settings: 1000 and 2000 mg/kg, 7 days
# Protocol: (§1) The toxicity of the esculetin derivatives of the present invention was examined. Typical examples of the present derivatives were administered orally at a dose of 2000 mg/kg (body weight) to male mice and male rats which were then observed for seven days. No deaths and no remarkable toxicity were observed. The esculetin derivatives of the present invention are extremely safe compounds (see Example 13).
# (§2) The acute toxicity of the esculetin derivatives of the present invention was examined using Crj: CD-1 (ICR) male mice (6 weeks old) and Wistar male rats (6 weeks old). After 6-(β-2-acetamido-2-deoxy-D-glucopyranosyloxy)-7-(N,N-dimethylcarbamoyloxy)coumarin [Ib-2] […] In the experiments as above, two animals were used for each group.
# [2] = tested on: Wistar male rats; experiment: Acute toxicity, oral, male rats, 7-day observation; format: in vivo, rat; settings: 1000 and 2000 mg/kg, 7 days
# Protocol: as §1, §2
# [3] = tested on: interstitial collagenase (MMP-1); experiment: Inhibition of production of interstitial collagenase (MMP-1) in rabbit cartilage organ culture system, IL-1α stimulated; format: cell-based, rabbit (New Zealand White); settings: IL-1α 100 units/ml, 48 hours; rabbit articular cartilage; values only in FIG. 1
# Protocol: After the articular cartilages were collected from the shoulder and knee of rabbits (New Zealand White Rabbits, male, 6 weeks old) and divided into small pieces, cultivation experiment was started using Dulbecco's MEM medium containing 0.2% lactoalbumin. The compounds to be tested were dissolved in dimethylsulfoxide (DMSO) and then added to the medium. The concentration of DMSO was 0.25% by volume to the medium. After 2 hours from addition of the compounds to be tested, 100 units/ml of interleukin-1α (hereinafter referred to as the IL-1α) was added as a stimulant, and the cultivation was performed for 48 hours. Thereafter, the activity of MMP-1 in the supernatant of the culture was measured. Collageno kit (CLN-100) (Cosmo Bio Co., Ltd.) was used for the measurement of MMP-1.
# The results are shown as the value of the mean value±standard error (n=4 per a group). As the esculetin derivative of the present invention, 6-(β-2-acetamido-2-deoxy-D-glucopyranosyloxy)-7-(N,N-dimethylcarbamoyloxy)coumarin [Ib-2] was used.
# The abscissa is the percentage of the amounts of MMP-1 produced by adding both IL-1α and the compound to be tested as compared to the amounts of MMP-1 produced by the addition of IL-1α alone. When neither IL-1α nor the compound to be tested were added as a control test, MMP-1 was hardly produced.
# [4] = Pharmacokinetic analysis in mouse femoral head cartilage (FHC) model; format: in vivo, BALB/C female mice implanted with FHC of S. D. male rats; settings: oral, 534 mg/kg [Ib-2] vs esculetin 187 mg/kg; values only in FIG. 2
# Protocol: The model mice were prepared in accordance with the method described in D. A. Willoughby et al., Agents Actions, vol. 38, pp. 126 to 134, 1993.
# The left and right femoral head cartilages (FHC) were sterilely excised from S. D. male rats in a clean bench. The excised FHC's were washed with a Ham F-12 culture medium containing antibiotics and the wet weight was measured. Then, the FHC's were wrapped in two cotton sheets (about 1 cm×1 cm) and cooled with ice in the culture medium for storage until implantation. The FHC's were implanted sterilely under the dorsal skin of BALB/C female mice whose dorsal regions were shaved. The incisions were stitched, and then completely sealed with surgical adhesive (Toa Gosei, Japan).
# The above mouse FHC model were used to pharmacokinetically compare esculetin and the esculetin derivative [Ib-2] of the present invention. Esculetin (187 mg/kg) and an equimolar amount, i.e., 534 mg/kg, of the esculetin derivative [Ib-2] of the present invention were administered orally three days after the implantation of the FHC. The FHC's were periodically removed and digested with papain. Then, an amount of the compounds taken up in the FHC was analyzed by high performance liquid chromatography. In the above experiments, three mice were used for each group.
smiles,measurement,setting,value
"CC(=O)N[C@H]1[C@H](Oc2cc3ccc(=O)oc3cc2OC(=O)N(C)C)O[C@H](CO)[C@@H](O)[C@@H]1O [Ib-2, 6-(β-2-acetamido-2-deoxy-D-glucopyranosyloxy)-7-(N,N-dimethylcarbamoyloxy)coumarin]",deaths,[1],No deaths were observed
same,general state and body weight in comparison with the control group,[1],no change was observed
same,deaths,[2],No deaths were observed
same,general state and body weight in comparison with the control group,[2],no change was observed
same,amounts of MMP-1 released under IL-1α stimulated condition,[3],reduced the amounts of MMP-1 under IL-1α stimulated condition
same,amount of compound taken up and retained in the FHC,[4],taken up and retained in the FHC for a long time in a higher concentration as compared to esculetin

# Source: US5731293A, “Esculetin derivatives, method for manufacture thereof, and pharmaceutical composition” (Kureha Chemical Industry Co., Ltd., priority 1994, dated 1998)
